{"source": "patent US10464927B2", "about": "“2,4-disubstituted pyrimidines as CDK inhibitors” (Shanghai Xunhe Pharmaceutical Technology Co. Ltd., priority 2016, dated 2019)", "key": {"[1]": {"target": "CDK4 (Homo sapiens (Human), UniProt P11802)", "sequence (P11802 whole entry)": "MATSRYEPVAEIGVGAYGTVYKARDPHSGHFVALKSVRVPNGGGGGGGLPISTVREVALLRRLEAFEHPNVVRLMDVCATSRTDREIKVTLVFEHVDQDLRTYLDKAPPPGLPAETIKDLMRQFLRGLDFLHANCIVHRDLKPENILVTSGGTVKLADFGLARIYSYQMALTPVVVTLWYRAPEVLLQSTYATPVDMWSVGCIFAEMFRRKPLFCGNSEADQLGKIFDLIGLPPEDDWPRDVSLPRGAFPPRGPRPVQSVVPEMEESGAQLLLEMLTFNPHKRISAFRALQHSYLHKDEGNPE", "sequence (P30281 whole entry partner)": "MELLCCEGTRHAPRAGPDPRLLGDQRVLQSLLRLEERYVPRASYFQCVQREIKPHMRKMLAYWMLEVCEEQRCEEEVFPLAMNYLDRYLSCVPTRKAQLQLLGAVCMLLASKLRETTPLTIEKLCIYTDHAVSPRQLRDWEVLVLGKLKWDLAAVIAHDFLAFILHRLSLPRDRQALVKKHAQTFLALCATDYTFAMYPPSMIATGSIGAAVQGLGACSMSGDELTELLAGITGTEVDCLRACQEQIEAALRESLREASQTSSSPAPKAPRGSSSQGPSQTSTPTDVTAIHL", "test": "CDK4 protein kinase activity, Caliper mobility shift assay", "assay_type": "biochemical", "conditions": "GST-CDK4(1-303 end), substrate Peptide FAM-P8, 28° C. for 3 h", "method": "(§1) activity assay: The CDK4 protein kinase activity was measured using the Caliper mobility shift assay (see J. Biomol. Screen, 2009, PP31). The test compound was dissolved in DMSO and diluted with a kinase buffer solution (20 mM HEPES-pH 7.5, 0.01% Triton X-100, 10 mM MgCl2, 2 mM DTT) and 5 μL of compound at 5-fold final concentration of reaction dissolved in 10% DMSO was added in a 384-well plate. The compound-free control well was 5 μL of 10% DMSO, and the no-activity control well was 5 μL of kinase buffer. 10 μL of a 2.5-fold diluted CDK4 enzyme solution (GST-CDK4(1-303 end)) was added and incubated at room temperature for 10 min, and then 10 μL of the 2.5-fold diluted substrate solution Peptide FAM-P8 was added. The reaction was stopped by adding 25 μL of stop solution after incubation at 28° C. for 3 h, and the conversion rate data was read on a Caliper EZ Reader II (Caliper Life Sciences) and the conversion rate was converted to inhibition rate data according to above method. Among them, the inhibition rate %=(max−conversion)/(max−min)×100%."}, "[2]": {"target": "CDK6 (Homo sapiens (Human), UniProt Q00534)", "sequence (Q00534 whole entry)": "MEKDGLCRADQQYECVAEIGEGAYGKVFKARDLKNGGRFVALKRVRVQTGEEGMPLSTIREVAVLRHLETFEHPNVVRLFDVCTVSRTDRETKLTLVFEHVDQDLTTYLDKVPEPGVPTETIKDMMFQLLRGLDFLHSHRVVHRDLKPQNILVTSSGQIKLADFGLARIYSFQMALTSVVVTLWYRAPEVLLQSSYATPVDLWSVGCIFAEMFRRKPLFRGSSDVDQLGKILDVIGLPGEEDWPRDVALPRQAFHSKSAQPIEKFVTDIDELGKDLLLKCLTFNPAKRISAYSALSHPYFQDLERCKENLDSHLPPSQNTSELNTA", "sequence (P30281 whole entry partner)": "as the sequence (P30281 whole entry partner) above", "test": "CDK6 protein kinase activity, Caliper mobility shift assay", "assay_type": "biochemical", "conditions": "GST-CDK6(1-326 end), substrate Peptide FAM-P8, 28° C. for 3 h", "method": "as §1, with “Activity Assay:” for “activity assay:”, “CDK6” for “CDK4”, “(GST-CDK6(1-326” for “(GST-CDK4(1-303”"}}}
{"compound": "CCN1CCN(Cc2ccc(Nc3ncc(F)c(-c4ccc5nnc(C6CC6)n5c4)n3)nc2)CC1", "note": "[Compound I-36, N-(5-(4-ethylpiperazin-1-methyl)-pyridin-2-yl)-5-fluoro-4-(3-cyclopropyl-[1,2,4]triazolo[4,3-a]pyridin-6-yl)pyrimidin-2-amine]", "values": [{"measurement": "IC50", "setting": "[1]", "value": "≤ 20", "unit": "nM"}, {"measurement": "IC50", "setting": "[2]", "value": "≤ 20", "unit": "nM"}]}
{"compound": "CC(C)n1c(C(=O)N(C)C)cc2nc(-c3nc(Nc4ccc(N5CCNCC5)cn4)ncc3F)ccc21", "note": "[Compound I-25, N-(5-(piperazin-1-yl)-pyridin-2-yl)-5-fluoro-4-(1-isopropyl-2-formic acid diformamido-1H-4-azaindol-5-yl)pyrimidin-2-amine]", "values": [{"measurement": "IC50", "setting": "[1]", "value": "≤ 20", "unit": "nM"}, {"measurement": "IC50", "setting": "[2]", "value": "≤ 20", "unit": "nM"}]}
{"compound": "CCN1CCN(Cc2ccc(Nc3ncc(F)c(-c4ccc5c(c4)cc(C(C)=O)n5C(C)C)n3)nc2)CC1", "note": "[Compound I-24, N-(5-(4-ethylpiperazine-1-methyl)-pyridin-2-yl)-5-fluoro-4-(1-isopropyl-2-acetyl-1H-indol-5-yl)pyrimidin-2-amine]", "values": [{"measurement": "IC50", "setting": "[1]", "value": "≤ 20", "unit": "nM"}, {"measurement": "IC50", "setting": "[2]", "value": "≤ 20", "unit": "nM"}]}
{"compound": "CC(=O)c1nc2cnc(-c3nc(Nc4ccc(CN5CCN(C)CC5)cn4)ncc3F)nc2n1C(C)C", "note": "[Compound I-38, N-(5-(4-methylpiperazine-1-methyl)-pyridin-2-yl)-5-fluoro-4-(9-isopropyl-8-acetyl-9H-purin-2-yl)pyrimidin-2-amine]", "values": [{"measurement": "IC50", "setting": "[1]", "value": "≤ 20", "unit": "nM"}, {"measurement": "IC50", "setting": "[2]", "value": "≤ 20", "unit": "nM"}]}
{"compound": "CCN1CCN(Cc2ccc(Nc3ncc(F)c(-c4ccc5ncc(C#N)n5c4)n3)nc2)CC1", "note": "[Compound I-34, N-(5-(4-ethylpiperazine-1-methyl)-pyridin-2-yl)-5-fluoro-4-(3-cyano-imidazo[1,2-a]pyridin-6-yl)pyrimidin-2-amine]", "values": [{"measurement": "IC50", "setting": "[1]", "value": "≤ 20", "unit": "nM"}, {"measurement": "IC50", "setting": "[2]", "value": "≤ 20", "unit": "nM"}]}
{"compound": "CCN1CCN(Cc2ccc(Nc3ncc(F)c(-c4ncnc5c4cc(C(C)=O)n5C4CC4)n3)nc2)CC1", "note": "[Compound I-41, N-(5-(4-ethylpiperazine-1-methyl)-pyridin-2-yl)-5-fluoro-4-(6-acetyl-7-cyclopropyl-7H-pyrrolo[2,3-d]pyrimidin-4-yl)pyrimidin-2-amine]", "values": [{"measurement": "IC50", "setting": "[1]", "value": "≤ 20", "unit": "nM"}, {"measurement": "IC50", "setting": "[2]", "value": "≤ 20", "unit": "nM"}]}
{"compound": "Cc1nc2cnc(-c3nc(Nc4ccc(N5CCNCC5)cn4)ncc3F)nc2n1C(C)C", "note": "[Compound I-8, N-(5-(piperazin-1-yl)-pyridin-2-yl)-5-fluoro-4-(9-isopropyl-8-methyl-9H-purin-2-yl)pyrimidin-2-amine]", "values": [{"measurement": "IC50", "setting": "[1]", "value": "≤ 20", "unit": "nM"}, {"measurement": "IC50", "setting": "[2]", "value": "20 to 100", "unit": "nM"}]}
{"compound": "CCN1CCN(Cc2ccc(Nc3ncc(F)c(-c4ncc5nc(C(=O)N(C)C)n(C)c5n4)n3)nc2)CC1", "note": "[Compound I-40, N-(5-(4-ethylpiperazin-1-methyl)-pyridin-2-yl)-5-fluoro-4-(9-methyl-8-formic acid diformamido-9H-purin-2-yl)pyrimidin-2-amine]", "values": [{"measurement": "IC50", "setting": "[1]", "value": "≤ 20", "unit": "nM"}, {"measurement": "IC50", "setting": "[2]", "value": "≤ 20", "unit": "nM"}]}
{"compound": "CCN1CCN(Cc2ccc(Nc3ncc(F)c(-c4ccc5c(c4)c(C(C)=O)nn5C(C)C)n3)nc2)CC1", "note": "[Compound I-44, N-(5-(4-ethylpiperazine-1-methyl)-pyridin-2-yl)-5-fluoro-4-(1-isopropyl-3-acetyl-1H-indazol-5-yl)pyrimidin-2-amine]", "values": [{"measurement": "IC50", "setting": "[1]", "value": "≤ 20", "unit": "nM"}, {"measurement": "IC50", "setting": "[2]", "value": "> 500", "unit": "nM"}]}
{"compound": "CCN1CCN(Cc2ccc(Nc3ncc(F)c(-c4ccc5nnc(C(F)(F)F)n5c4)n3)nc2)CC1", "note": "[Compound I-33, N-(5-(4-ethylpiperazine-1-methyl)-pyridin-2-yl)-5-fluoro-4-(3-trifluoromethyl-[1,2,4]triazolo[4,3-a]pyridin-6-yl)pyrimidin-2-amine]", "values": [{"measurement": "IC50", "setting": "[1]", "value": "≤ 20", "unit": "nM"}, {"measurement": "IC50", "setting": "[2]", "value": "≤ 20", "unit": "nM"}]}
{"compound": "Cc1c(C(F)(F)F)c2cc(-c3ccnc(Nc4ccc(CN5CCN(C(C)C)CC5)cn4)n3)ccc2n1C", "note": "[Compound I-16, N-(5-(4-isopropylpiperazin-1-methyl)-pyridin-2-yl)-4-(1,2-dimethyl-3-trifluoromethyl-1H-indol-5-yl)pyrimidin-2-amine]", "values": [{"measurement": "IC50", "setting": "[1]", "value": "≤ 20", "unit": "nM"}, {"measurement": "IC50", "setting": "[2]", "value": "≤ 20", "unit": "nM"}]}
